# Results: PMC8488693 (Proceedings of the National Academy of Sciences of the …, 2021)
# Assays:
# [1] = biological target: Hs20S β5c (Homo sapiens, UniProt P20618+P28074); experiment: Hs20S β5c activity, Ac-WLA-AMC cleavage with human PA28αβ; assay type: biochemical
# [2] = test system: Pf cultures; settings: ref [9]; cited from earlier work
smiles,measurement,setting,value
"CC(C)C[C@H](NC(=O)[C@H](Cc1ccccc1)NC(=O)c1cnccn1)B(O)O [Bortezomib, bortezomib, reference compound]",More potent as inhibitor of Hsβ5c activity than of Pfβ5 activity,[1],twofold
same,Synergy with dihydroxyartemisinin (DHA),[2],strong synergy
